Source: patent US7723324B2 (priority 2003, dated 2010)

How the values were obtained:
[1] = target: T1, peripheral benzodiazepine receptors (Rattus norvegicus, UniProt P16257); assay: benzodiazepine receptor binding (test of LeFur et al.), peripheral
T1 construct: from tissue; Rat heart membranes according to own knowledge of the cited Le Fur et al. method
Experimental: Compounds of the invention were assessed for their binding to the benzodiazepine receptor by the test of Speth et al. [Life Sci. 24, 351 (1979)] for central benzodiazepine receptors and LeFur et al. [Life Sci. 33, 449 (1983)] for peripheral receptors. The compounds were tested first at 1.00E-09, 1.0E-07 and 1.0E-05 M in single determination. […] The specific ligand binding to the receptor is defined as the difference between the total binding and the nonspecific binding determined in the presence of an excess of unlabelled ligand. In each experiment, the respective reference compound was tested concurrently with the test compounds in order to assess the assay suitability. It was tested at several concentrations (for IC50 value determination), and the data were compared with historical values. The assay was rendered valid if suitability criteria were met.
However, the invention is not limited to the compounds found in the Tables.

[2] = maze test, which tests anxiety; assay type: in vivo; settings: 10 mg/kg
Experimental: The compounds of Example 1d (also found in Example 6d), Example 22d, and Example 35d, were also tested in vivo using the maze test, which tests anxiety [Montgomery, J. Comparative and Physiological Psychology 48, 254-60 (1955); Handley et al., Naunyn-Schmiedeberg's Archives of Pharmacology 327, 1-5 (1984); Lister, Psychopharm. 92, 180-85 (1987); Pellow et al., J. Neuroscience Methods 14, 149-67 (1985); Rodgers et al., Ethology and Psychopharmacology, S. J. Cooper and C. A. Hendrie (eds), John Wiley & Sons, Ltd., 9-43 (1994); and Trullas et al., Psychopharm. 111, 323-31 (1993)]. The results of the maze test for these compounds are found in FIGS. 1a, 1b, 2a, 2b, 3a, and 3b. FIGS. 1a, 2a, and 3a are graphs of the Number of Entries in Open Arms vs. mg/kg (dose of administered compound). FIGS. 1b, 2b, and 3b plot the Percent of Time Spent in Open Arms vs. mg/kg (dose of administered compound). […] The results of the maze test are accepted by persons of skill in the art as predictive of therapeutic utility.

T1 sequence (P16257 whole entry): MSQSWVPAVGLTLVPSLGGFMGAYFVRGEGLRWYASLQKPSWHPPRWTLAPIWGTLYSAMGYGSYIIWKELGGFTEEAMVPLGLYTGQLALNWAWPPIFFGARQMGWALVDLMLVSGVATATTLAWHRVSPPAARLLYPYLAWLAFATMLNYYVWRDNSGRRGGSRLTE

SMILES	IC50 ([1]; Table 1a)	other results
Cc1ccc(-c2nc3ccc(C)cn3c2CC(=O)c2cccn2C)cc1	> 10000 nM	
Cc1ccc(-c2nc3ccc(C)cn3c2CC(=O)c2c(C)nc3ccccn23)cc1	1600 nM	
Cc1ccc(-c2nc3ccc(C)cn3c2CC(=O)c2cc(C)n[nH]2)cc1	> 10000 nM	
Cc1ccc(-c2nc3ccc(C)cn3c2CC(=O)c2cc3ccccc3n2C)cc1	540 nM	
Cc1ccc(-c2nc3ccc(C)cn3c2CC(=O)c2cnn3c(C)cc(C)nc23)cc1	> 10000 nM	
COc1ccc(-c2nc3ccc(C)cn3c2CC(=O)c2cccn2C)cc1		IC50 ([1]; Table 1b): 1700 nM
COc1ccc(-c2nc3ccc(C)cn3c2CC(=O)c2cnn3c(C)cc(C)nc23)cc1		IC50 ([1]; Table 1b): > 10000 nM
Cc1ccc(-c2nc3ccc(C)cn3c2C2CCN(C)C2=O)cc1 (stereo not shown)		IC50 ([1]; Table 2): > 10000 nM
Cc1ccc(-c2nc3ccc(C)cn3c2CC(=O)c2cccs2)cc1 [Example 1d, 2-(6-Methyl-2-p-tolyl-imidazo[1,2-a]pyridin-3-yl)-1-thiophen-2-yl-ethanone]		maze test activity (Number of Entries in Open Arms, Percent of Time Spent in Open Arms) [2]: statistically significant activity
COc1ccsc1C(=O)Cc1c(-c2ccc(C)cc2)nc2ccc(C)cn12 [Example 22D, 1-(3-Methoxy-thiophen-2-yl)-2-(6-methyl-2-p-tolyl-imidazo[1,2-a]pyridin-3-yl)-ethanone]		maze test activity (Number of Entries in Open Arms, Percent of Time Spent in Open Arms) [2]: statistically significant activity
